Read-outs that look alike come from different tables or passages of the source.
Legend:
[1] = tested on: IL-4 induced STAT6 phosphorylation in THP-1 human monocytic cells; assay: Cellular JAK potency assay, THP-1
JAK1 = JAK1 (Homo sapiens (Human), UniProt P23458); assay: LanthaScreen JAK biochemical assay (JAK1)
[2] = tested on: IL-13 induced STAT6 phosphorylation in BEAS-2B human lung epithelial cells; assay: AlphaScreen cellular JAK potency assay, BEAS-2B
JAK2 = JAK2 (Homo sapiens (Human), UniProt O60674); assay: LanthaScreen JAK biochemical assay (JAK2); details: for Ki: read-out: JAK 2 (pKi) (converted)
Sequence of JAK2 (O60674 whole entry): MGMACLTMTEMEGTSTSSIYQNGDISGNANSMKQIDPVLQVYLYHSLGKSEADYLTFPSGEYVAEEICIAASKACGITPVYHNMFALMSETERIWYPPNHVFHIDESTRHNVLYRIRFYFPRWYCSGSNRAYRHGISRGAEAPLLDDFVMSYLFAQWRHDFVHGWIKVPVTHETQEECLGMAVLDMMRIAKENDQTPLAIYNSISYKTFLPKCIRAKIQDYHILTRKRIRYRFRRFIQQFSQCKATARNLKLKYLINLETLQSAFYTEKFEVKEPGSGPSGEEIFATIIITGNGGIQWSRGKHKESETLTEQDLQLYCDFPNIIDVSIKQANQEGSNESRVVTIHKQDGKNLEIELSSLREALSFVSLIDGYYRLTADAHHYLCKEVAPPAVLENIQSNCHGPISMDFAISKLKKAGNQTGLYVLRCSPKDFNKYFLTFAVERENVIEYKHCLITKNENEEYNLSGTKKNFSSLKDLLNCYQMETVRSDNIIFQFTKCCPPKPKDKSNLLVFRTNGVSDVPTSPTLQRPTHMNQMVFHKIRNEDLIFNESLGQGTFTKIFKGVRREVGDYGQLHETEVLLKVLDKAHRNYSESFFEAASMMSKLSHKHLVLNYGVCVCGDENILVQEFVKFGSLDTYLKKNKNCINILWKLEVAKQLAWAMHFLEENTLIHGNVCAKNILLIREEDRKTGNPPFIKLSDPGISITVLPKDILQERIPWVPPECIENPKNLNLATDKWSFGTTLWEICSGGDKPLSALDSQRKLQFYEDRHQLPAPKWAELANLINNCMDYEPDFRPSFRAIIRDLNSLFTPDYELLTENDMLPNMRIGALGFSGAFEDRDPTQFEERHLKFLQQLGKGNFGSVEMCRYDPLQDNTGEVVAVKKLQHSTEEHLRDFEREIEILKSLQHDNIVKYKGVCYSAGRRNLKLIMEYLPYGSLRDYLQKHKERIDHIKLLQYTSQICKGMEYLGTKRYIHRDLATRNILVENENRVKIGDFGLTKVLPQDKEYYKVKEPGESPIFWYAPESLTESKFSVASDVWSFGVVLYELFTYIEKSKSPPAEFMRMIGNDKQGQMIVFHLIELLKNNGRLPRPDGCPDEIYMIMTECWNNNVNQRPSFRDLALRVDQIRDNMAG

[3] = THP-1 cells, IL-4 induced STAT6 phosphorylation
[4] = BEAS-2B cells, IL-13 induced STAT6 phosphorylation
[5] = IL-4 induced STAT6 phosphorylation, THP-1 cells
[6] = IL-13 induced STAT6 phosphorylation, BEAS-2B cells
[7] = Homo sapiens, THP-1, read-out: THP-1 IL4 pIC50 (converted)
[8] = read-out: JAK 1 (pKi) (converted)
[9] = Homo sapiens, BEAS-2B, read-out: BEAS2B pIC50 (converted)

Sequence of JAK1 (P23458 whole entry): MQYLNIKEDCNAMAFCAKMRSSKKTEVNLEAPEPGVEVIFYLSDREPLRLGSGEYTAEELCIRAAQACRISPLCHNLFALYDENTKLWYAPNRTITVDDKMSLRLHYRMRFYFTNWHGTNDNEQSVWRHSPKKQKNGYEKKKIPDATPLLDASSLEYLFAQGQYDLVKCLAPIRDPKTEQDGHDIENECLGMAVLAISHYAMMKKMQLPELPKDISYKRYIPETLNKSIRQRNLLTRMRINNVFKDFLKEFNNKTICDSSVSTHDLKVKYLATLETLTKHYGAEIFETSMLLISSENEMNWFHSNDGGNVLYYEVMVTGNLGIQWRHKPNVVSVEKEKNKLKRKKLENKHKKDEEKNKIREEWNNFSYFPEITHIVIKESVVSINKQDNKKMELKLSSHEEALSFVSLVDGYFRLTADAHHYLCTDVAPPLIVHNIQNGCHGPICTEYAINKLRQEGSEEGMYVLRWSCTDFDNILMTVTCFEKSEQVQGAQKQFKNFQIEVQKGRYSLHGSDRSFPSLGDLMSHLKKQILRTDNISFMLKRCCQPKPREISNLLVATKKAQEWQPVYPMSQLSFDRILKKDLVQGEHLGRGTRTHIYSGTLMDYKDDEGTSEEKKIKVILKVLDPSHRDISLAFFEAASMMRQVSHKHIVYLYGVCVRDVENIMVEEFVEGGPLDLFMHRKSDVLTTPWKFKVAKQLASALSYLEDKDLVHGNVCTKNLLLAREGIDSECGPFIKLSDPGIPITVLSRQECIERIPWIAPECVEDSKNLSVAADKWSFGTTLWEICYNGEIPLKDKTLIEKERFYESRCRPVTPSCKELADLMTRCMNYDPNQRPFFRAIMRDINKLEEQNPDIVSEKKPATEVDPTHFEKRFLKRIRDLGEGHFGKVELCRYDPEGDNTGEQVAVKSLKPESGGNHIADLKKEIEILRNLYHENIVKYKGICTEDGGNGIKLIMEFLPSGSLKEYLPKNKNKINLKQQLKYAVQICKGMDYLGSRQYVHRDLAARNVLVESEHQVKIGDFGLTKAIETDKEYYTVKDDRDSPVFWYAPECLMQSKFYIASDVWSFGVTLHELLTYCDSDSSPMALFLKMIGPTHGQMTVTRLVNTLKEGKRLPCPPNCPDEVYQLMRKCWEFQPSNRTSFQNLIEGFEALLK

Structure (SMILES)	THP-1 IL4 pIC50 [1, 3]	JAK 1 (pKi) (JAK1)	BEAS2B pIC50 [2, 4]	JAK 2 (pKi) (JAK2)	THP-1 IL4 pIC50 [1, 5]	BEAS2B pIC50 [2, 6]	IC50 [1, 7] [nM]	Ki (JAK1; [8]) [nM]	IC50 [2, 9] [nM]	Ki (JAK2) [nM]	Ki (JAK1) [nM]
COc1cnc2cc(Nc3cc(C)[nH]n3)nc(N[C@@H]3C[C@H]4CCC[C@@H](C3)N4Cc3ccncc3)c2c1 [Example 6-28]	A (A represents a pEC50 value≥7.5 (EC50≤32 nM))	B (B represents a pKi value between 9 and 10 (Ki between 1 nM and 0.1 nM))	A (A represents a pEC50 value≥7.5 (EC50≤32 nM))	B (B represents a pKi value between 9 and 10 (Ki between 1 nM and 0.1 nM))							
Cc1cc(Nc2cc3nc(CN4CCOCC4)ccc3c(N[C@@H]3C[C@H]4CCC[C@@H](C3)N4S(C)(=O)=O)n2)n[nH]1 [Example 5-22]		A (A represents a pKi value≥10 (Ki≤0.1 nM))		A (A represents a pKi value≥10 (Ki≤0.1 nM))	B (B represents a pEC50 value between 6.7 and 7.5 (EC50 between 200 nM and 32 nM))	A (A represents a pEC50 value≥7.5 (EC50≤32 nM))					
Cc1cc(Nc2cc3ncccc3c(N[C@@H]3C[C@H]4CC[C@@H](C3)N4C(C)CC#N)n2)n[nH]1 (stereo partly drawn) [Example 1-21]		B (B represents a pKi value between 9 and 10 (Ki between 1 nM and 0.1 nM))		B (B represents a pKi value between 9 and 10 (Ki between 1 nM and 0.1 nM))	A (A represents a pEC50 value≥7.5 (EC50≤32 nM))	B (B represents a pEC50 value between 6.7 and 7.5 (EC50 between 200 nM and 32 nM))					
Cc1cc(Nc2cc3ncccc3c(N[C@@H]3C[C@H]4CCC[C@@H](C3)N4CCCF)n2)n[nH]1 [Example 1-40]		B (B represents a pKi value between 9 and 10 (Ki between 1 nM and 0.1 nM))		B (B represents a pKi value between 9 and 10 (Ki between 1 nM and 0.1 nM))	A (A represents a pEC50 value≥7.5 (EC50≤32 nM))	A (A represents a pEC50 value≥7.5 (EC50≤32 nM))					
Cc1cnc2cc(Nc3cc(C)[nH]n3)nc(N[C@@H]3C[C@H]4CC[C@@H](C3)N4Cc3ccncc3)c2c1 [Example 6-2]	A (A represents a pEC50 value≥7.5 (EC50≤32 nM))	B (B represents a pKi value between 9 and 10 (Ki between 1 nM and 0.1 nM))	B (B represents a pEC50 value between 6.7 and 7.5 (EC50 between 200 nM and 32 nM))	B (B represents a pKi value between 9 and 10 (Ki between 1 nM and 0.1 nM))							
COc1ccc2c(N[C@@H]3C[C@H]4CCC[C@@H](C3)N4CCC#N)nc(Nc3cc(C)[nH]n3)cc2n1 [Example 5-10]		A (A represents a pKi value≥10 (Ki≤0.1 nM))		A (A represents a pKi value≥10 (Ki≤0.1 nM))	A (A represents a pEC50 value≥7.5 (EC50≤32 nM))	A (A represents a pEC50 value≥7.5 (EC50≤32 nM))					
COc1cnc2cc(Nc3cc(C)[nH]n3)nc(N[C@@H]3C[C@H]4CC[C@@H](C3)N4Cc3ccncc3)c2c1 [Example 6-24]	B (B represents a pEC50 value between 6.7 and 7.5 (EC50 between 200 nM and 32 nM))	B (B represents a pKi value between 9 and 10 (Ki between 1 nM and 0.1 nM))	B (B represents a pEC50 value between 6.7 and 7.5 (EC50 between 200 nM and 32 nM))	B (B represents a pKi value between 9 and 10 (Ki between 1 nM and 0.1 nM))							
COc1ccc2c(N[C@@H]3C[C@H]4CC[C@@H](C3)N4C(=O)C3(C(F)(F)F)CC3)nc(Nc3cc(C)[nH]n3)cc2n1 [Example 5-6]							< 31.6	0.1 to 1	< 31.6	0.1 to 1	
Cc1cnc2c(F)c(Nc3cc(C)[nH]n3)nc(N[C@@H]3C[C@H]4CCC[C@@H](C3)N4S(C)(=O)=O)c2c1 [Example 8-22]	B (B represents a pEC50 value between 6.7 and 7.5 (EC50 between 200 nM and 32 nM))	B (B represents a pKi value between 9 and 10 (Ki between 1 nM and 0.1 nM))	B (B represents a pEC50 value between 6.7 and 7.5 (EC50 between 200 nM and 32 nM))	B (B represents a pKi value between 9 and 10 (Ki between 1 nM and 0.1 nM))							
COc1ccnc2cc(Nc3cc(C)[nH]n3)nc(N[C@@H]3C[C@H]4CC[C@@H](C3)N4CC(F)(F)F)c12 [Example 7-9]							< 31.6		< 31.6	0.1 to 1	0.1 to 1
Cc1cc(Nc2cc3ncccc3c(N[C@@H]3C[C@H]4CC[C@@H](C3)N4S(=O)(=O)C(C)C)n2)n[nH]1 [Example 4-2]							< 31.6	0.1 to 1	< 31.6	0.1 to 1	
Cc1cc(Nc2cc3ncccc3c(N[C@@H]3C[C@H]4CCC[C@@H](C3)N4CCC(F)(F)F)n2)n[nH]1 [Example 1-44]		B (B represents a pKi value between 9 and 10 (Ki between 1 nM and 0.1 nM))		B (B represents a pKi value between 9 and 10 (Ki between 1 nM and 0.1 nM))	A (A represents a pEC50 value≥7.5 (EC50≤32 nM))	A (A represents a pEC50 value≥7.5 (EC50≤32 nM))					
Cc1cc(Nc2nc(N[C@@H]3C[C@H]4CCC[C@@H](C3)N4S(C)(=O)=O)c3cccnc3c2F)n[nH]1 [Example 8-10]	A (A represents a pEC50 value≥7.5 (EC50≤32 nM))	A (A represents a pKi value≥10 (Ki≤0.1 nM))	A (A represents a pEC50 value≥7.5 (EC50≤32 nM))	A (A represents a pKi value≥10 (Ki≤0.1 nM))							
Cc1cc(Nc2cc3ncccc3c(N[C@@H]3C[C@H]4CCC[C@@H](C3)N4CC(C)C)n2)n[nH]1 [Example 1-43]		B (B represents a pKi value between 9 and 10 (Ki between 1 nM and 0.1 nM))		B (B represents a pKi value between 9 and 10 (Ki between 1 nM and 0.1 nM))	A (A represents a pEC50 value≥7.5 (EC50≤32 nM))	A (A represents a pEC50 value≥7.5 (EC50≤32 nM))					
Cc1cc(Nc2cc3ncccc3c(N[C@@H]3C[C@H]4CCC[C@@H](C3)N4CCF)n2)n[nH]1 [Example 1-39]		B (B represents a pKi value between 9 and 10 (Ki between 1 nM and 0.1 nM))		B (B represents a pKi value between 9 and 10 (Ki between 1 nM and 0.1 nM))	A (A represents a pEC50 value≥7.5 (EC50≤32 nM))	A (A represents a pEC50 value≥7.5 (EC50≤32 nM))					
Cc1cc(Nc2cc3ncccc3c(N[C@@H]3C[C@H]4CC[C@@H](C3)N4S(=O)(=O)c3cncc(F)c3)n2)n[nH]1 [Example 4-15]							< 31.6	0.1 to 1	< 31.6	0.1 to 1	
Cc1cc(Nc2nc(N[C@@H]3C[C@H]4CCC[C@@H](C3)N4S(=O)(=O)c3cccnc3)c3cccnc3c2F)n[nH]1 [Example 8-12]	A (A represents a pEC50 value≥7.5 (EC50≤32 nM))	B (B represents a pKi value between 9 and 10 (Ki between 1 nM and 0.1 nM))	A (A represents a pEC50 value≥7.5 (EC50≤32 nM))	B (B represents a pKi value between 9 and 10 (Ki between 1 nM and 0.1 nM))							
CCN1CC(S(=O)(=O)N2[C@@H]3CC[C@H]2C[C@H](Nc2nc(Nc4cc(C)[nH]n4)cc4ncccc24)C3)C1 [Example 4-10]							31.6 to 200	0.1 to 1	31.6 to 200	0.1 to 1	
CCS(=O)(=O)N1[C@@H]2CC[C@H]1C[C@H](Nc1nc(Nc3cc(C)[nH]n3)cc3nccc(OC)c13)C2 [Example 7-2]							< 31.6	0.1 to 1	< 31.6	0.1 to 1	
Cc1cc(Nc2cc3ncccc3c(N[C@@H]3C[C@H]4CC[C@@H](C3)N4Cc3ccncc3)n2)n[nH]1 [Example 1-17]		B (B represents a pKi value between 9 and 10 (Ki between 1 nM and 0.1 nM))		B (B represents a pKi value between 9 and 10 (Ki between 1 nM and 0.1 nM))	B (B represents a pEC50 value between 6.7 and 7.5 (EC50 between 200 nM and 32 nM))	B (B represents a pEC50 value between 6.7 and 7.5 (EC50 between 200 nM and 32 nM))					
Cc1cc(Nc2cc3ncccc3c(N[C@@H]3C[C@H]4CCC[C@@H](C3)N4S(=O)(=O)Cc3cccnc3)n2)n[nH]1 [Example 4-26]		B (B represents a pKi value between 9 and 10 (Ki between 1 nM and 0.1 nM))		B (B represents a pKi value between 9 and 10 (Ki between 1 nM and 0.1 nM))	B (B represents a pEC50 value between 6.7 and 7.5 (EC50 between 200 nM and 32 nM))	B (B represents a pEC50 value between 6.7 and 7.5 (EC50 between 200 nM and 32 nM))					
Cc1cc(Nc2cc3nc(CO)ccc3c(N[C@@H]3C[C@H]4CC[C@@H](C3)N4CCCF)n2)n[nH]1 [Example 5-14]		B (B represents a pKi value between 9 and 10 (Ki between 1 nM and 0.1 nM))		B (B represents a pKi value between 9 and 10 (Ki between 1 nM and 0.1 nM))	B (B represents a pEC50 value between 6.7 and 7.5 (EC50 between 200 nM and 32 nM))	B (B represents a pEC50 value between 6.7 and 7.5 (EC50 between 200 nM and 32 nM))					
Cc1cc(Nc2cc3ncccc3c(N[C@@H]3C[C@H]4CC[C@@H](C3)N4CC(C)C#N)n2)n[nH]1 (stereo partly drawn) [Example 1-23]		A (A represents a pKi value≥10 (Ki≤0.1 nM))		A (A represents a pKi value≥10 (Ki≤0.1 nM))	A (A represents a pEC50 value≥7.5 (EC50≤32 nM))	A (A represents a pEC50 value≥7.5 (EC50≤32 nM))					
COc1ccnc2cc(Nc3cc(C)[nH]n3)nc(N[C@@H]3C[C@H]4CC[C@@H](C3)N4CCC#N)c12 [Example 7-6]	A (A represents a pEC50 value≥7.5 (EC50≤32 nM))	B (B represents a pKi value between 9 and 10 (Ki between 1 nM and 0.1 nM))	B (B represents a pEC50 value between 6.7 and 7.5 (EC50 between 200 nM and 32 nM))	B (B represents a pKi value between 9 and 10 (Ki between 1 nM and 0.1 nM))							
